What was measured:
[1] = tested on: NSCLC PDX explants with autologous CD8+ T cells; assay: Co-culture of NSCLC PDX tumor explants with autologous CD8+ T cells, IFNγ ELISA; type: cell-based, human; details: for IFNγ secretion by autologous CD8+ T cells, anti-PD1 plus mizoribine-treated explants: explants pre-treated with mizoribine 0.3 mM 10 hrs, nivolumab or pembrolizumab 20 µg/mL, 18 hours
From the text: Two patients bearing metastatic non-small cell lung cancer (NSCLC) were included in this study. Blood samples and fresh tumor tissue samples were procured just after their biopsy with patient consent and with Helsinki approval (number 0093-19-SOR). The samples were placed in serum free DMEM (Gibco) media then processed for implantation in NSG (NOD scid gamma) mice. Tumor tissue samples were implanted subcutaneously in dorsal flanks of the mice to form patient-derived xenografts (PDXs). All animal experiments were done under Institutional Animal Care and Use Committee (IACUC) of Ben-Gurion University of the Negev (BGU’s IACUC) according to specified protocols aiming to ensure animal welfare and reduce su □ ering. The Animal ethical clearance protocol number used for this research is IL-80-12-2015. After isolation of peripheral blood mononuclear cells (PBMCs) from the peripheral blood of the patients according to standard protocol using Lymphocyte Separation Medium (LSM, MP Biomedicals, SKU 0850494-CF), CD8^+ T cells were isolated from PBMCs by employing human CD8 Microbeads (Miltenyi Biotec, 130-045-201), LS column (Miltenyi Biotec, 130-042-401) and MidiMACS Separator (130-042-302) following manufacturer’s protocol. For culturing and maintenance of CD8 T cells, RPMI containing 10% human male AB plasma (Sigma, H4522), 1 mM sodium pyruvate, 2 mM L-glutamine, 0.1 mM MEM non-essential amino acids, 1% penicillin/streptomycin, 10 mM HEPES (Life Technologies), 200 IU/mL recombinant human IL-2 (PeproTech) and 50 ng/mL anti-human CD3 Antibody (BioLegend, 317302) were used for the first 48 hrs followed by culturing and passaging in media containing 200 IU/mL of IL-2.
2×2×2 mm^3 tumor tissue explants were cut from PDXs with a specific tissue cutter and seeded singly in 48 well flat-bottom plates and incubated with either mizoribine (0.3 mM) in 400 µl of media or with only media for 10 hrs. Then, explants were washed once and transferred into new 48 well flat-bottom plates containing 2×10^5 CD8+T cells/well along with nivolumab (Opdivo, 20 µg/mL), pembrolizumab (Keytruda, 20 µg/mL) or mock solventin fresh 400 µl RPMI containing 20 IU/ml ofIL-2. After 18 hours of incubation, the supernatant was collected from the wells and then assayed for standard IFNγ ELISA assay (ELISA MAX, Biolegend) according to manufacturer’s instructions.
Two patients bearing metastatic non-small cell lung cancer (NSCLC) were included in this study. Blood samples and fresh tumor tissue samples were procured just after their biopsy with patient consent and with Helsinki approval (number 0093-19-SOR). The samples were placed in serum free DMEM (Gibco) media then processed for implantation in NSG (NOD scid gamma) mice (NOD.Cg-Prkdcscid Il2rgtm1Wjl, The Jackson Laboratory). Tumor tissue samples were implanted subcutaneously in dorsal flanks of the 7-9 weeks old male mice to form patient-derived xenografts (PDXs).
After isolation of peripheral blood mononuclear cells (PBMCs) from the peripheral blood of the patients according to standard protocol using Lymphocyte Separation Medium (LSM, MP Biomedicals, SKU 0850494-CF), CD8^+ T cells were isolated from PBMCs by employing human CD8 Microbeads (Miltenyi Biotec, 130-045-201), LS column (Miltenyi Biotec, 130-042-401) and MidiMACS Separator (130-042-302) following manufacturer’s protocol. For culturing and maintenance of CD8 T cells, RPMI containing 10% human male AB plasma (Sigma, H4522), 1 mM sodium pyruvate, 2 mM L-glutamine, 0.1 mM MEM non-essential amino acids, 1% penicillin/streptomycin, 10 mM HEPES (Life Technologies), 200 IU/mL recombinant human IL-2 (PeproTech) and 50 ng/mL anti-human CD3 Antibody (BioLegend, 317302) were used for the first 48 hrs followed by culturing and passaging in media containing 200 IU/mL of IL-2.
PDXs from patients with lung cancer non responsive to anti-PD1 were exposed to no treatment, to mizoribine, or to either EDHB (left panel) or Viagra (right panel). […]

4T1 breast cancer cells = assay: In-vitro EDHB nucleotide analysis by LC-MS, 4T1; type: cell-based, murine; details: 4T1 cells, 200 uM EDHB, 8 hours
From the text: LC-MS analysis: The LC-MS/MS instrument consisting of an Acquity I-class UPLC system (Waters) and Xevo TQ-S triple quadrupole mass spectrometer (Waters), equipped with an electrospray ion source, and operated in positive ion mode was used for analysis of nucleoside monophosphates. MassLynx and TargetLynx software (version 4.1, Waters) were applied for the acquisition and analysis of data. Chromatographic separation was done on a 100 mm × 2.1 mm internal diameter, 1.8-µm UPLC HSS T3 column equipped with 50 mm × 2.1 mm internal diameter, 1.8-µm UPLC HSS T3 pre-column (both Waters Acquity) with mobile phases A (10 mM ammonium acetate and 5 mM ammonium hydrocarbonate buffer, pH 7.65 adjusted with 10% acetic acid) and B (acetonitrile) at a flow rate of 0.3 mL min-1 and column temperature 25° C. […] Nucleotide concentration was calculated using a standard curve of the relevant nucleotide concentration in each sample. Standard curves included increasing concentration of all measured nucleotides ranging from 0-10 ug/ml that were positioned at the beginning and at the end of each run. All the calculated values for the different nucleotides in each sample fell within the standard curve range. […]

4T1 cells = assay: In-vivo EDHB experiment, 4T1 tumors in mammary fat pad; set-up: species or system female BALB/c mice
Experimental: In-vivo EDHB experiment: Eight-week-old female BALB/c mice were inoculated with 4T1 in the mammary fat pad (1 × 10^6 cells). ethyl 3,4 dihydroxybenzoate (EDHB) treatment was started after 4 days when the primary tumor nodule was established and palpable. EDHB (40 mg per kg) was intraperitoneally injected daily into cancer-bearing mice. EDHB was initially dissolved in 100% Ethanol and diluted to required concentration in saline. 95% Saline/5% Ethanol mix without drug was injected as a vehicle to control animals. Following injection, mice were treated with 250 ug of anti PD-1 antibody on days 7, 11, 13, 15. On day 19, mice were euthanized and tumors were removed and weighted.

A549 cells = assay: Nucleotide levels by LC-MS with or without methotrexate; type: cell-based; details: 1.2 µM Methotrexate
Experimental: Methotrexate treatment: A549 cells were grown for 48 hr in control medium or supplemented with 1.2 µM Methotrexate (Holland-Moran). Nucleotide levels were measured as described below by LC-MS. Purine/pyrimidine ratio was calculated by dividing (AMP+GMP+ATP+ADP+GTP) concentration by (UMP+CMP+TMP+UTP+CTP+TTP) concentration.
LC-MS analysis: The LC-MS/MS instrument consisting of an Acquity I-class UPLC system (Waters) and Xevo TQ-S triple quadrupole mass spectrometer (Waters), equipped with an electrospray ion source, and operated in positive ion mode was used for analysis of nucleoside monophosphates. MassLynx and TargetLynx software (version 4.1, Waters) were applied for the acquisition and analysis of data. Chromatographic separation was done on a 100 mm × 2.1 mm internal diameter, 1.8-µm UPLC HSS T3 column equipped with 50 mm × 2.1 mm internal diameter, 1.8-µm UPLC HSS T3 pre-column (both Waters Acquity) with mobile phases A (10 mM ammonium acetate and 5 mM ammonium hydrocarbonate buffer, pH 7.65 adjusted with 10% acetic acid) and B (acetonitrile) at a flow rate of 0.3 mL min-1 and column temperature 25° C. A gradient was used as follows: for 0-3 min the column was held at 0.2% B, then 3-3.5 min a linear increase to 100% B, 3.5-4.0 min held at 100% B, 4.0-4.5 min back to 0.2% B and equilibration at 0.2% B for 2.5 min. Samples kept at 8° C. were automatically injected in a volume of 3 µl. For mass spectrometry, argon was used as the collision gas with a flow of 0.10 mL min-1. The capillary voltage was set to 2.50 kV, source temperature 150° C., desolvation temperature 400° C., cone gas flow 150 1 hr-1, desolvation gas flow 800 1 hr-1. Nucleotide concentration was calculated using a standard curve of the relevant nucleotide concentration in each sample. Standard curves included increasing concentration of all measured nucleotides ranging from 0-10 ug/ml that were positioned at the beginning and at the end of each run. All the calculated values for the different nucleotides in each sample fell within the standard curve range. Analytes were detected in positive mode using multiple-reaction monitoring listed in Lee, J. S. et al. 2018 (REF_9).
Nucleotide levels of 4T1 cells grown either with or without 1.2 µM Methotrexate (Holland-Moran) for 48 h, were measured and quantified by liquid chromatography-mass spectrometry (LC-MS) as µg/mg protein.

With `CCOC(=O)c1ccc(O)c(O)c1` [EDHB, Ethyl 3,4 dihydroxybenzoate] the “response to anti-PD1 therapy (IFN-g response) in PDX of non responsive patients” value ([1]; PDXs from lung cancer patients non responsive to anti-PD1, IFN-g measured following anti-PD1) was “increases response to anti-PD1 therapy”, the “cellular deoxypyrimidine to deoxypurine ratio (pyrimidine / purine ratio)” value (4T1 breast cancer cells) was “increase in pyrimidine / purine ratio” and the “tumor weight, EDHB and anti PD-1 combination treatment” value (4T1 cells; 40 mg/kg EDHB IP daily from day 4, 250 ug anti PD-1 IP days 7, 11, 13, 15) was “reduces tumor weight”. The “total weight of the mice” value (4T1 cells; 40 mg/kg EDHB IP daily, with anti PD-1) was “did not cause any change”.

In the case of pembrolizumab: anti-PD1 antibody, the “IFNγ secretion by autologous CD8+ T cells, anti-PD1 plus mizoribine-treated explants” value [1] is reported as “significant elevation in IFNγ secretion”.

For `CN(Cc1cnc2nc(N)nc(N)c2n1)c1ccc(C(=O)N[C@@H](CCC(=O)O)C(=O)O)cc1` [Methotrexate], the “AMP level, Methotrexate Treatment” value (A549 cells; 48 h, 4T1 cells) was 483.2 µg/mg pt, the “ATP level, Methotrexate Treatment” value (A549 cells; 48 h, 4T1 cells) was 75.1 µg/mg pt and the “CMP level, Methotrexate Treatment” value (A549 cells; 48 h, 4T1 cells) was 7.3 µg/mg pt. For the same molecule, the “CTP level, Methotrexate Treatment” value (A549 cells; 48 h, 4T1 cells) was 12.0 µg/mg pt, the “GMP level, Methotrexate Treatment” value (A549 cells; 48 h, 4T1 cells) was 28.46 µg/mg pt and the “GTP level, Methotrexate Treatment” value (A549 cells; 48 h, 4T1 cells) was 16.7 µg/mg pt. For the same molecule, the “TMP level, Methotrexate Treatment” value (A549 cells; 48 h, 4T1 cells) was 0.0078 µg/mg pt, the “TTP level, Methotrexate Treatment” value (A549 cells; 48 h, 4T1 cells) was 0.004432 µg/mg pt and the “UMP level, Methotrexate Treatment” value (A549 cells; 48 h, 4T1 cells) was 38.39 µg/mg pt. For the same molecule, the “UTP level, Methotrexate Treatment” value (A549 cells; 48 h, 4T1 cells) was 36.9 µg/mg pt and the “purine to pyrimidine ratio” value (A549 cells; high ASS1 expressing lung cancer cells (A549), 48 hr) was “decreased their purine to pyrimidine ratio”.

With nivolumab: anti-PD1 antibody the “IFNγ secretion by autologous CD8+ T cells, anti-PD1 plus mizoribine-treated explants” value [1] was “significant elevation in IFNγ secretion”.

— patent US20230293530A1, “AGENTS FOR SENSITIZING SOLID TUMORS TO TREATMENT” (Yeda Research and Development Co. Ltd., priority 2020, published 2023)
